From the supplement of paper PMC10307832

Tests used:
Assay in all cases: relative viability (nuclei count vs DMSO), 5 days (fraction); higher = more cells survive
Etoposide + Palbociclib = compound: COc1cc([C@@H]2c3cc4c(cc3[C@@H](O[C@@H]3O[C@@H]5CO[C@@H](C)O[C@H]5[C@H](O)[C@H]3O)[C@H]3COC(=O)[C@H]23)OCO4)cc(OC)c1O [Etoposide] + CC(=O)c1c(C)c2cnc(Nc3ccc(N4CCNCC4)cn3)nc2n(C2CCCC2)c1=O [Palbociclib] (partner 0.5 µM)
How it was run: (§1)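 Values are medians from duplicate plates. Each reflects relative viability, defined as the nuclei count of treated wells over that of vehicle wells. Lung cancer cell lines in 1536-well plates were pin-tool dosed one day after seeding with one drug alone or with a fixed anchor-drug dose plus five library-drug doses (not always all listed) in √10 steps, then fixed, stained and imaged at 4× after 5 days.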

Etoposide + AZD7762 = compound: COc1cc([C@@H]2c3cc4c(cc3[C@@H](O[C@@H]3O[C@@H]5CO[C@@H](C)O[C@H]5[C@H](O)[C@H]3O)[C@H]3COC(=O)[C@H]23)OCO4)cc(OC)c1O [Etoposide] + NC(=O)Nc1cc(-c2cccc(F)c2)sc1C(=O)N[C@H]1CCCNC1 [AZD7762] (partner 0.2 µM)
How it was run: as §1

Bleomycin + Alpelisib = compound: CC1=C(N=C(N=C1N)[C@H](CC(=O)N)NC[C@@H](C(=O)N)N)C(=O)N[C@@H]([C@H](C2=CN=CN2)OC3C(C(C(C(O3)CO)O)O)OC4C(C(C(C(O4)CO)O)OC(=O)N)O)C(=O)N[C@H](C)[C@H]([C@H](C)C(=O)N[C@@H]([C@@H](C)O)C(=O)NCCC5=NC(=CS5)C6=NC(=CS6)C(=O)NCCC[S+](C)C)O [Bleomycin] + Cc1nc(NC(=O)N2CCC[C@H]2C(N)=O)sc1-c1ccnc(C(C)(C)C(F)(F)F)c1 [Alpelisib] (partner 2 µM); details: main component drawn
How it was run: as §1

Etoposide + Bortezomib = compound: COc1cc([C@@H]2c3cc4c(cc3[C@@H](O[C@@H]3O[C@@H]5CO[C@@H](C)O[C@H]5[C@H](O)[C@H]3O)[C@H]3COC(=O)[C@H]23)OCO4)cc(OC)c1O [Etoposide] + CC(C)C[C@H](NC(=O)[C@H](Cc1ccccc1)NC(=O)c1cnccn1)B(O)O [Bortezomib] (partner 0.002 µM)
How it was run: as §1

| Cell Line | relative viability (Etoposide + Palbociclib; first compound 0.01 µM) | relative viability (Etoposide + Palbociclib; first compound 0.03162 µM) | relative viability (Etoposide + Palbociclib; first compound 0.1 µM) | relative viability (Etoposide + Palbociclib; first compound 0.3162 µM) | relative viability (Etoposide + Palbociclib; first compound 1 µM) | relative viability (Etoposide + AZD7762; first compound 0.01 µM) | relative viability (Etoposide + AZD7762; first compound 0.03162 µM) | relative viability (Etoposide + AZD7762; first compound 0.1 µM) | relative viability (Etoposide + AZD7762; first compound 0.3162 µM) | relative viability (Etoposide + AZD7762; first compound 1 µM) | relative viability (Bleomycin + Alpelisib; first compound 0.01 µM) | relative viability (Bleomycin + Alpelisib; first compound 0.03162 µM) | relative viability (Bleomycin + Alpelisib; first compound 0.1 µM) | relative viability (Bleomycin + Alpelisib; first compound 0.3162 µM) | relative viability (Bleomycin + Alpelisib; first compound 1 µM) | relative viability (Etoposide + Bortezomib; first compound 0.01 µM) | relative viability (Etoposide + Bortezomib; first compound 0.03162 µM) | relative viability (Etoposide + Bortezomib; first compound 0.1 µM) | relative viability (Etoposide + Bortezomib; first compound 0.3162 µM) | relative viability (Etoposide + Bortezomib; first compound 1 µM) |
| --- | --- | --- | --- | --- | --- | --- | --- | --- | --- | --- | --- | --- | --- | --- | --- | --- | --- | --- | --- | --- |
| NCI-H522 | 0.926 | 0.988 | 0.849 | 1.16 | 0.797 | 0.891 | 0.97 | 0.69 | 0.761 | 0.824 | – | – | – | – | – | – | – | – | – | – |
| HCC-15 | 0.623 | 0.695 | 0.828 | 0.468 | 0.244 | 1.2 | 1.34 | 1.32 | 1.01 | 0.777 | 0.79 | 0.852 | 0.751 | 0.35 | 0.236 | 0.959 | 1.04 | 1.13 | 0.67 | 0.157 |
| A-427 | 0.51 | 0.479 | 0.486 | 0.378 | 0.282 | 0.713 | 0.741 | 0.569 | 0.473 | 0.286 | 0.983 | 1.05 | 1.05 | 0.48 | 0.203 | 0.92 | 1.02 | 0.726 | 0.819 | 0.244 |
| NCI-H23 | 0.504 | 0.515 | 0.485 | 0.334 | 0.236 | 0.246 | 0.307 | 0.187 | 0.195 | 0.172 | 0.327 | 0.298 | 0.192 | 0.127 | 0.122 | 0.919 | 1.15 | 0.516 | 0.317 | 0.215 |
| NCI-H1734 | 0.358 | 0.374 | 0.312 | 0.306 | 0.242 | 0.561 | 0.538 | 0.333 | 0.306 | 0.19 | 0.626 | 0.519 | 0.514 | 0.27 | 0.216 | 0.894 | 0.878 | 0.572 | 0.624 | 0.308 |
| NCI-H2087 | 0.211 | 0.19 | 0.214 | 0.215 | 0.193 | 1.46 | 1.3 | 1.3 | 1.08 | 0.78 | 0.865 | 0.924 | 0.795 | 0.196 | 0.165 | – | 0.888 | 0.864 | 0.641 | 0.302 |
| PC-3 [JPC-3] | 0.481 | 0.493 | 0.545 | 0.56 | 0.526 | 0.782 | 0.92 | 0.604 | 0.785 | 0.73 | 0.847 | 0.993 | 0.905 | 0.655 | 0.506 | 0.795 | 0.756 | 0.93 | 0.775 | 0.67 |
| NCI-H1915 | 0.471 | 0.569 | 0.506 | 0.459 | 0.375 | 0.66 | 0.777 | 0.697 | 0.648 | 0.527 | 0.896 | 0.888 | 0.68 | 0.325 | 0.167 | 0.963 | 0.969 | 0.992 | 0.906 | 0.516 |
| NCI-H1666 | 0.618 | 0.639 | 0.662 | 0.592 | 0.506 | 0.852 | 0.99 | 0.814 | 0.583 | 0.532 | 0.711 | 0.708 | 0.625 | 0.264 | 0.354 | 0.949 | 0.71 | 0.528 | 0.294 | 0.242 |
| HCC-366 | 0.341 | 0.375 | 0.257 | 0.071 | 0.0568 | 0.227 | 0.251 | 0.187 | 0.091 | 0.0373 | 0.345 | 0.253 | 0.212 | 0.042 | 0.035 | 1.04 | 1.03 | 0.518 | 0.135 | 0.0399 |
| SK-MES-1 | 0.338 | 0.31 | 0.315 | 0.262 | 0.239 | – | – | – | – | – | 0.731 | 0.531 | 0.59 | 0.315 | 0.185 | – | – | – | – | – |
| NCI-H727 | 0.67 | 0.675 | 0.581 | 0.689 | 0.767 | 0.647 | 0.582 | 0.405 | 0.527 | 0.579 | 0.499 | 0.529 | 0.491 | 0.293 | 0.308 | 0.764 | 1.07 | 0.536 | 0.857 | 0.659 |
| Calu-6 | – | – | – | – | – | – | – | – | – | – | 0.63 | 0.603 | 0.333 | 0.181 | 0.177 | 1.06 | 0.973 | 1.03 | 0.693 | 0.405 |
| SK-LU-1 | 0.381 | 0.397 | 0.319 | 0.247 | 0.22 | – | – | – | – | – | 0.889 | 0.735 | 0.902 | 0.502 | 0.412 | 1.44 | 1.11 | 0.765 | 0.515 | 0.272 |
| NCI-H1650 | 0.376 | 0.36 | 0.26 | 0.199 | 0.168 | – | – | – | – | – | – | – | – | – | – | 0.201 | 0.204 | 0.208 | 0.181 | 0.185 |
| NCI-H2170 | 0.382 | 0.427 | – | 0.36 | 0.319 | 0.721 | 0.882 | – | 0.881 | 0.482 | 0.775 | 0.815 | 0.792 | 0.58 | 0.552 | – | – | – | – | – |
| NCI-H1299 | – | – | – | – | – | – | – | – | – | – | 0.978 | 1.03 | 0.923 | 0.529 | 0.416 | 1.03 | 0.999 | 1.11 | 0.957 | 0.821 |
| EBC-1 | – | – | – | – | – | – | – | – | – | – | 0.777 | 0.718 | 0.696 | 0.501 | 0.404 | 0.528 | 0.503 | 0.55 | 0.581 | 0.379 |
